Source: patent US20060252813A1, “Apparatus for curing a composite laminate” (priority 2002, published 2006)
Where a SMILES comes first, the peptide text is derived from it. [ ]: non-standard residue; d: D form. Phe(3-CN) = N#Cc1cccc(C[CH](N)C(=O)O)c1; Phe(2-CN) = N#Cc1ccccc1C[CH](N)C(=O)O; 1Nal = N[CH](Cc1cccc2ccccc12)C(=O)O

Experiments:
LpCyp18 = LpCyp18 (Legionella pneumophila, UniProt Q5ZRZ4); experiment: biochemical
hCyp18 = hCyp18 (Homo sapiens, UniProt P62937); experiment: protease-coupled PPIase assay, hCyp18; type: biochemical; conditions: 10 nM hCyp18; substrate Suc-Ala-Phe-Pro-Phe-pNA, α-chymotrypsin; 35 mM HEPES pH 7.8, 6° C; read-out: Target T-3 (hCyp18), IC50 class
hPin1 = hPin1 (Homo sapiens, UniProt Q13526); experiment: protease-coupled PPIase assay, hPin1; type: biochemical; conditions: 6 nM hPin1; substrate Ac-Ala-Ala-Ser(PO3H2)-Pro-Arg-pNA, trypsin; 35 mM HEPES pH 7.8, 6° C; read-out: Target T-1 (hPin1), IC50 class
hFKBP12 = hFKBP12 (Homo sapiens, UniProt P62942); experiment: protease-coupled PPIase assay, hFKBP12; type: biochemical; conditions: 20 nM hFKBP12; substrate Suc-Ala-Phe-Pro-Phe-pNA, α-chymotrypsin; 35 mM HEPES pH 7.8, 6° C; read-out: Target T-2 (hFKBP12), IC50 class
EcParvulin = EcParvulin (Escherichia coli, UniProt P0A9L5); experiment: protease-coupled PPIase assay, EcParvulin; type: biochemical; conditions: 20 nM EcParvulin; substrate Suc-Ala-Phe-Pro-Phe-pNA, α-chymotrypsin; 35 mM HEPES pH 7.8, 6° C; read-out: Target T-5 (EcParv), IC50 class
Sequence of EcParvulin (P0A9L5 whole entry): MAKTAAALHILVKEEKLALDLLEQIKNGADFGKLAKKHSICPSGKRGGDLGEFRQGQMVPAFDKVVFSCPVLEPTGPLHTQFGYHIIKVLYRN

Sequence of hPin1 (Q13526 whole entry): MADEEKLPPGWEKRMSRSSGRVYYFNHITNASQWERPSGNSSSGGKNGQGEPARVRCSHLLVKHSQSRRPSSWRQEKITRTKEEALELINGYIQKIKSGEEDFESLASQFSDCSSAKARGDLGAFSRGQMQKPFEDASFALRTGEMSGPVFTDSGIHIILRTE
Sequence of hCyp18 (P62937 whole entry): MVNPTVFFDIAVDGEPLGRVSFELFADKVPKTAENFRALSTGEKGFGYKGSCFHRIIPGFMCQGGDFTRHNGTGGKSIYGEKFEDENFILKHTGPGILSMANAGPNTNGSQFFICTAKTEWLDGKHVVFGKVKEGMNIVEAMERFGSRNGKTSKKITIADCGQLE
Sequence of LpCyp18 (Q5ZRZ4 1-164): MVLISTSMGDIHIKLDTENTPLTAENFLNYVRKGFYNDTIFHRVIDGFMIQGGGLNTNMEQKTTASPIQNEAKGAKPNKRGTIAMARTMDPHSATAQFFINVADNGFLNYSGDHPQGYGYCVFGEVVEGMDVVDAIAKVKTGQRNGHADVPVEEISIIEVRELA
Sequence of hFKBP12 (P62942 whole entry): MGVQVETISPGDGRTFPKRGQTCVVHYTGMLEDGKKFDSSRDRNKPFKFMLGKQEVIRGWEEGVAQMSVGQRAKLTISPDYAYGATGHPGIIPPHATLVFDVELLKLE

| Compound | IC50 (LpCyp18) [µM] | IC50 (hCyp18) [µM] | IC50 (hPin1) [µM] | IC50 (hFKBP12) [µM] | IC50 (EcParvulin) [µM] |
| --- | --- | --- | --- | --- | --- |
| CCNC(=S)NC(Cc1ccc2ccccc2c1)C(=O)NCCC#N (stereo not drawn) [Compound 1] | > 100 | > 100 | < 5 | > 100 | – |
| N#CCCNC(=O)[C@H](Cc1csc2ccccc12)NC(=S)Nc1ccc(SC(F)(F)F)cc1 [Compound 2] | > 100 | > 100 | 5 to 10 | > 100 | – |
| N#CCCNS(=O)(=O)Cc1ccccc1 [Compound 3] | > 100 | > 100 | 5 to 10 | > 100 | – |
| CCc1ccc(NC(=S)NCCC#N)cc1 [Compound 5] | > 100 | > 100 | < 5 | > 100 | – |
| CC(C)CC(NC(=O)C1CCCN1CC#N)C(N)=O (stereo not drawn) [Compound 6] | > 100 | > 100 | 5 to 10 | > 100 | – |
| CN(C)c1ccc(N=Nc2ccc(S(=O)(=O)NCCC#N)cc2)cc1 [Compound 7] | > 100 | > 100 | 5 to 10 | > 100 | – |
| CC(=O)NC(Cc1cccc2ccccc12)C(=O)NC(Cc1ccccc1C#N)C(N)=O (stereo not drawn) [Compound 8] (Ac-[1Nal]-[Phe(2-CN)]-NH2; configuration not given here) | > 100 | > 100 | < 5 | > 100 | – |
| CC(=O)NC(Cc1cccc2ccccc12)C(=O)NC(Cc1cccc(C#N)c1)C(N)=O (stereo not drawn) [Compound 9] (Ac-[1Nal]-[Phe(3-CN)]-NH2; configuration not given here) | > 100 | > 100 | 5 to 10 | > 100 | 5 to 10 |
